In article PMC11247486, “Improving the In Vivo Stability of [^52Mn]Mn(II) Complexes with 18-Membered Macrocyclic Chelators for PET Imaging” (Journal of Medicinal Chemistry, 2024):

Key:
[1] = Cyclic voltammetry of the Mn(II) complexes; type: physicochemical; conditions: for peak-to-peak separation (ΔEp): 2 mM complex, pH ∼ 6.5
Procedure: Cyclic voltammetry experiments were performed with Mn-PYAN and Mn-CHXPYAN, using aqueous solutions with a complex concentration of 2 mM, containing 0.15 M NaCl as the supporting electrolyte (pH ∼ 6.5). The cyclic voltammograms obtained (Figure 3) show well-defined anodic and cathodic waves due to the Mn(II)/Mn(III) pair, which are characteristic of reversible or quasi-reversible processes. At the lowest scan rate (20 mV/s), the peak-to-peak separation (ΔEp) is slightly smaller for Mn-CHXPYAN than for Mn-PYAN, with values of 73 and 80 mV, respectively. When increasing the scan rate, ΔEp increases slightly, with values of 85 and 102 mV, respectively, at the highest scan rate (500 mV/s). This situation is characteristic of electrochemically quasi-reversible processes, although for Mn-CHXPYAN, the values of ΔEp are lower and present less variation with the scan rate.
This is likely related to ligand field effects due to the more symmetrical octahedral coordination around the metal ion in Mn-CHXPYAN than in Mn-PYAN, as evidenced by the shape measures mentioned above (Table S1, Supporting Information).[37] Indeed, high-spin Mn(III) complexes often display Jahn–Teller distorted octahedral coordination, while high-spin Mn(II) complexes lack any LFSE.[38],[39] The E1/2 values of 652 and 567 mV vs Ag/AgCl (3 M KCl) correspond to 862 and 777 mV vs NHE for Mn-PYAN and Mn-CHXPYAN, respectively.[40]
Cyclic voltammetry measurements were performed with a three-electrode configuration on an Autolab PGSTAT302 M potentiostat-galvanostat. A glassy-carbon disk (Metrohm 61204600) was used as the working electrode. The surface of this electrode was polished with α-Al2O3 (0.3 μm) and washed with distilled water before every measurement. The reference electrode used was a Ag/AgCl reference electrode filled with 3 M KCl (Metrohm 6.0726.100). A Pt wire was used as the counter electrode. The complex solutions (2 mM) containing […] were deoxygenated by bubbling nitrogen before each measurement.

[2] = Transmetalation (dissociation) kinetics of the Mn(II) complexes with Cu2+; type: physicochemical
Procedure: There is a wide consensus among the coordination chemistry community that kinetic inertness is more important for the safe use of metal complexes for imaging applications than thermodynamic stability.[8],[49],[50] Thus, we conducted a detailed investigation of the transmetalation kinetics of the Mn-PYAN and Mn-CHXPYAN complexes, by following their exchange reactions with Cu^2+ in the pH range of 2.5–4.5 (eq 3). [drawing 3] 3
All reactions were carried out in the presence of a large excess of Cu^2+ in order to guarantee the pseudo-first-order kinetic conditions. The transmetalation of Mn-PYAN in the pH range ∼2.0–4.5 is very fast, and thus the rates of the reactions were measured using the stopped-flow technique. Conversely, the exchange reactions of the Mn-CHXPYAN complex are slow and could be studied by using conventional methods. The transmetalation reactions of Mn-PYAN and Mn-CHXPYAN were monitored by following the formation of the corresponding Cu(II) complexes at 295 nm.
The kd values increase upon increase in [H^+] and are independent of the concentration of Cu^2+ as it was found for Mn-PCTA, Mn-PC3AM, and Mn-bispidine complexes.[49],[51] […] The increase in the kd values with increasing H^+ concentration can be interpreted in terms of the extremely slow spontaneous (k0, eq 4) and the proton-assisted (k*[Mn(HL), eq 6) dissociation of Mn(II) complexes. The saturation behavior of the plots of kd versus [H^+] (Figure 5) is characteristic for the equilibrium formation and the accumulation of the *[Mn(HL)] intermediate characterized by the *KH protonation constant (eq 5). The analysis of the rate constants obtained for Mn-CHXPYAN indicates a second-order dependence of kd on [H^+], which can be explained by the proton-assisted dissociation of the *[Mn(HL)] intermediate (k^H*[Mn(HL)], eq 7). [drawing 4] 4 [drawing 5] 5 [drawing 6] 6 [drawing 7] 7
In the presence of excess of the exchanging ion, the transmetalation can be treated as a pseudo-first-order process, and the rate of reactions can be expressed with eq 8, where kd is a pseudo-first-order rate constant and [MnL]t is the total concentration of the complex. [drawing 8] 8
Through consideration of all the possible pathways, the rate of the transmetalation of Mn-PYAN and Mn-CHXPYAN with Cu^2+ can be expressed by eq 9 [drawing 9] 9 Considering the total concentration of the Mn(II) complex ([MnL]t = [MnL] + [*Mn(HL)], as well as the equation defining the protonation constant for the formation of the *[Mn(HL)] intermediate (eq 5) and eq 8, the pseudo-first-order rate constant can be expressed as follows [drawing 10] 10 where k1 = k*[Mn(HL)] × *KH and k2 = k^H*[Mn(HL)] × *KH. The rate and protonation constants characterizing the transmetalation of Mn-PYAN and Mn-CHXPYAN with Cu^2+ have been calculated by fitting the kd values presented in Figure 5 to eq 10 and the values obtained are compared with the corresponding values of Mn-DOTA, Mn-DO3A, Mn-PCTA, Mn-PC3AM^H, and Mn-bispidine in Table 3.
Rates of the metal exchange reactions of Mn-PYAN and Mn-CHXPYAN with Cu^2+ were measured by spectrophotometry by following the formation of the related Cu(II) complexes at 295 nm with an Applied Photophysics DX-17MV stopped-flow instrument and PerkinElmer Lambda 365 UV–vis spectrophotometer using 1.0 cm cells, respectively. The concentration of Mn-PYAN and Mn-CHXPYAN was 1.0 × 10^–4 M, whereas the concentration of Cu^2+ was 10 and 20 times higher in order to guarantee pseudo-first-order conditions. The temperature was maintained at 25 °C and the ionic strength of the solutions was kept constant with 0.15 M NaCl. The exchange rates were studied in the pH range of ca. 2.0–4.5. To keep the pH values constant, monochloroacetic acid (pH range 2.0–3.3), 1,4-dimethylpiperazine (pH range 3.3–4.1), and N-methylpiperazine (pH range 4.1–4.5) buffers were used (0.01 M). […]

[3] = scan rate 500 mV/s, 0.15 M NaCl
[4] = vs Ag/AgCl (3 M KCl), 0.15 M NaCl

Structure (SMILES) | peak-to-peak separation (ΔEp) ([1]; scan rate 20 mV/s, 0.15 M NaCl) [mV] | peak-to-peak separation (ΔEp) [1, 3] [mV] | half wave potential (E1/2) [1, 4] [mV] | half wave potential (E1/2) ([1]; vs NHE) [mV] | acid-catalyzed dissociation rate kd ([2]; pH = 5.5, 25 °C) | t1/2 ([2]; pH = 5.5, 25 °C) [days] | k1 lower than that determined for Mn-PYAN ([2]; ratio of k1 values) [times] | t1/2 at pH = 7.4 ([2]; dissociation half-life of the Mn(II) complex, 0.15 M NaCl, 25 °C) [h]
[Mn+2].c1cc2nc(c1)CN[C@@H]1CCCC[C@H]1NCc1cccc(n1)CN[C@@H]1CCCC[C@H]1NC2 [Mn-CHXPYAN] | 73 | 85 | 567 | 777 | 7.9 × 10^–7 s^–1 | 10 | 3600 | –
[Mn+2].c1cc2nc(c1)CNCCNCc1cccc(n1)CNCCNC2 [Mn-PYAN] | 80 | 102 | 652 | 862 | – | – | – | 5.85
